US20040151698A1, “Microbial pesticide active against plant fungal pathogens and process for preparation thereof” (priority 2000, published 2004)
Several values for one entry are separate records, joined by “and”; a condition that tells them apart may be missing. Identical values can stand only once.

Key:
A. solani = assay: Field test against early blight in potato; type: in vivo, Alternaria solani; settings: sprayed at a usual concentration; for Morbidity (%) Avg.: average of 3 repeats
Description: (§1) Greenhouse and field tests of the fungicidal activity of the antagonistic microbe against various pathogenic fungi are conduced. For this, tomatoes are cultivated both in a greenhouse and a field. The tomatoes cultivated in a greenhouse and a field are treated with the spore suspension of the novel antagonistic microbe of the present invention and then exposed to pathogenic fungi, B. cinerea causing gray mold rot, C. fulvum causing leaf mold, and A. solani causing early blight, separately. The experiment is performed according to a randomized block design with three repeat measures. For comparison, procymidone for use in the control of gray mold rot, propineb for use in the control of leaf mold, and azoxystrobin for use in the control of early blight are employed. Morbidity is determined by examining the infection of all tomatoes one by one or by a sampling method. A significance test is carried out according to Duncan's multiple range test (DMRT).
To determine the fungicidal activity of the antagonistic microbe of the present invention against A. solani causing early blight, tomato was cultivated in a field. The cultivation was performed in the following schedule;
June 10 1st Treatment with the antagonistic microbe (spray amount 300 L/10 a)
July 5 2nd Treatment with the antagonistic microbe (spray amount 300 L/10 a)
July 13 Measuring mobidity
The experiment was performed in a randomized block design with three repeat measures. For comparison, azoxystrobin was sprayed as a control at a usual concentration. Morbidity was determined by examining the infection of 20 stocks of potatoes per repeat measure and attack frequency was calculated as in Experimental Example 4-2.

B. cinerea = assay: Greenhouse test against tomato gray mold rot; type: in vivo, Botrytis cinerea; settings: sprayed at a usual concentration
Description: as §1
To determine the fungicidal activity of the antagonistic microbe of the present invention against B. cinerea causing gray mold rot, tomato plants were cultivated in a greenhouse with a dimension of 23.7 m in length, 7.0 m in width and 2.3 m in height. The cultivation was performed according to the following schedule;
February 11 1st Treatment with the antagonistic microbe (spray amount 300 L/10 a)
February 20 2nd Treatment with the antagonistic microbe (spray amount 300 L/10 a)
March 2 3rd Treatment with the antagonistic microbe (spray amount 330 L/10 a)
March 22 Measuring mobidity
The tomato plants treated with the antagonistic microbe occupied an area of 5.4 m2 and the experiment was performed in triplicate in a randomized block design. For comparison, Procymidone was sprayed as a control at a usual concentration. The spore suspension of the antagonistic microbe prepared in Example 2 was added directly to water to bring about 500- and 1,000-fold dilutions of the population. Morbidity was determined by examining the infection of all tomato plants one by one. A significance test was performed according to Duncan's multiple range test (DMRT).

C. fulvum = assay: Greenhouse test against leaf mold in tomato; type: in vivo, Cladosporium fulvum; settings: sprayed at a usual concentration; for Morbidity (%) Avg.: average of 3 repeats
Description: as §1
To determine the fungicidal activity of the antagonistic microbe of the present invention against C. fulvum causing leaf mold, tomato plants were cultivated in the same manner as in Experimental Example 4-1 in a greenhouse with a dimension of 23.7 m in length, 7.0 m in width and 2.3 m in height. The experiment was performed in triplicate in a randomized block design. For comparison, propineb was sprayed as a control at a usual concentration. Morbidity was determined by examining the infection of 20 stalks of tomatoes per repeat measure and attack frequency was calculated according to the following equation: [formula]
wherein the factor is set to be: 0 when no leaves are infected; 1 when one forth of the total leaves are infected; 2 when half of the total leaves are infected and some of them are withered; 3 when three fourths of the total leaves are infected and half of them are withered; and 4 when two thirds are withered to death.

CO/C=C(/C(=O)OC)c1ccccc1Oc1cc(Oc2ccccc2C#N)ncn1 [Azoxytrobin, azoxystrobin]
Control value(%) (A. solani): 57.6%
Morbidity (%) Avg. (A. solani): 9.2 A %
Morbidity (%) Avg. (A. solani; listed as azoxystrobin): 9.2%
Morbidity (%) 1 (A. solani; repeat 1): 9.3%
Morbidity (%) 2 (A. solani; repeat 2): 10.2%
Morbidity (%) 3 (A. solani; repeat 3): 8.2%

CC12CC1(C)C(=O)N(c1cc(Cl)cc(Cl)c1)C2=O (centres unmarked) [Procymidone]
Control value(%) (B. cinerea): 40.2%
Morbidity (%) Avg. (B. cinerea; average of 3 repeats): 10.4% and 10.4 B %
Morbidity (%) 1 (B. cinerea; repeat 1): 12.3%
Morbidity (%) 2 (B. cinerea; repeat 2): 10.6%
Morbidity (%) 3 (B. cinerea; repeat 3): 8.2%

propineb
Control value(%) (C. fulvum): 42.9%
Morbidity (%) Avg. (C. fulvum): 12.0 B %
Morbidity (%) Avg. (C. fulvum; listed as propineb): 21.9%
Morbidity (%) 1 (C. fulvum; repeat 1): 10.3%
Morbidity (%) 2 (C. fulvum; repeat 2): 11.2%
Morbidity (%) 3 (C. fulvum; repeat 3): 14.5%
